From the NIST ThermoML archive (doi:10.1016/j.tca.2016.12.010)

Tests used:
[1] = Liquid; for mass density: 94.9 kPa, Vibrating tube method; for vapor or sublimation pressure: Ebulliometric method (Recirculating still)
[2] = refractive index (Na D-line) (dimensionless); conditions: 94.9 kPa, Liquid, (Schmidt +Haensch) refractometer (Model DSR lambda)
[3] = xn = mol fraction of the nth substance listed; conditions: 94.9 kPa, Liquid, Vibrating tube method, x2 = 0
[4] = refractive index (Na D-line) (dimensionless); xn = mol fraction of the nth substance listed; conditions: 94.9 kPa, Liquid, (Schmidt +Haensch) refractometer (Model DSR lambda), x2 = 0

CCCCCCCCCCO [decan-1-ol]
Conditions	mass density, [1] [kg/m3]	refractive index, [2]	vapor or sublimation pressure, [1] [kPa]
293.15 K	830.01	1.43711	–
303.15 K	823.54	1.43332	–
313.15 K	816.13	1.42949	–
323.15 K	808.84	1.42564	–
333.15 K	801.43	1.42189	–
436.56 K	–	–	13.32
469.52 K	–	–	39.99
487.85 K	–	–	66.66
501.05 K	–	–	94.9

CCCCCCCCCCO [decan-1-ol] + C1COCCN1
Conditions	mass density, 293.15 K [kg/m3]	mass density, 303.15 K [kg/m3]	mass density, 313.15 K [kg/m3]	mass density, 323.15 K [kg/m3]	mass density, 333.15 K [kg/m3]	refractive index, 293.15 K	refractive index, 303.15 K	refractive index, 313.15 K	refractive index, 323.15 K	refractive index, 333.15 K
[3]	830.01	823.54	816.13	808.84	801.43	–	–	–	–	–
[4]	–	–	–	–	–	1.43711	1.43332	1.42949	1.42564	1.42189

CCCCCCCCO [octan-1-ol]
Conditions	mass density, [1] [kg/m3]	refractive index, [2]
293.15 K	825.57	1.4295
298.15 K	821.9	1.42748
303.15 K	818.08	1.42561
308.15 K	814.31	1.42369
313.15 K	811.09	1.42169
318.15 K	807.7	1.41973
323.15 K	804.05	1.41783
333.15 K	796.88	1.41407

C1COCCN1 [tetrahydro-1,4-oxazine]
Conditions	mass density, [1] [kg/m3]	refractive index, [2]	vapor or sublimation pressure, [1] [kPa]
293.15 K	999.54	1.45453	–
303.15 K	989.89	1.45031	–
313.15 K	979.82	1.44574	–
323.15 K	969.78	1.44113	–
333.15 K	959.74	1.43562	–
343.91 K	–	–	13.32
372.25 K	–	–	39.99
387.57 K	–	–	66.66
398.92 K	–	–	94.9

Cc1ccccc1 [toluene]
Conditions	mass density, [1] [kg/m3]	refractive index, [2]
293.15 K	866.68	1.49666
298.15 K	861.74	1.49386
303.15 K	857.39	1.49193
308.15 K	851.69	1.48821
313.15 K	847.82	1.48536
318.15 K	842.88	1.48249
323.15 K	838.42	1.47968
333.15 K	828.94	1.47401

Cc1ccccc1 [toluene] + CCCCCCCCO
Conditions	mass density, [3] [kg/m3]	refractive index, [4]
293.15 K	866.68	1.49666
298.15 K	861.74	1.49386
303.15 K	857.39	1.49193
308.15 K	851.69	1.48821
313.15 K	847.82	1.48536
318.15 K	842.88	1.48249
323.15 K	838.42	1.47968
333.15 K	828.94	1.47401
